SMILES strings stand for the structures.

The subject of one test is purified human Hsp90. The test is described as follows: Binding Assay: fluorescence polarization with BODIPY-labeled geldanamycin. Particulars: 5 μM compound, BODIPY-GM 10 nM, Hsp90 30 nM. A digest of the protocol: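 Compounds in 2% DMSO final compete with 10 nM BODIPY-GM for 30 nM purified human Hsp90, incubated overnight at room temperature in pH 7.3 HEPES buffer containing Na2MoO4 and DTT. Polarization (mP, ex/em 485/530) normalized to DMSO gives percent inhibition; autofluorescence-confounded data excluded.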
In general terms: Fluorescence polarisation rises when a labelled molecule tumbles more slowly, as on binding a larger partner.
By % Inhibition is commonly meant the change of the read-out against control, counted positive when it falls. Consider `CC(C)(C)NC(=O)N1CCCC(CCn2cnc(N)c3nc(Sc4cc5c(cc4Br)OCO5)nc2-3)C1` (stereo not shown) [Example 442, 3-(2-{6-Amino-8-[(6-bromo-1,3-benzodioxol-5-yl)thio]-3H-purin-3-yl}ethyl)-N-(tert-butyl)piperidine-1-carboxamide], for which the “% Inhibition at 5 μM Compound Concentration” value (“% Inhibition” for short) is 4%.

On to `CCOC(=O)CNC(=O)N1CCC(CCn2cnc(N)c3nc(Sc4cc5c(cc4Br)OCO5)nc2-3)CC1` [Example 443, Ethyl N-{[4-(2-{6-amino-8-[(6-bromo-1,3-benzodioxol-5-yl)thio]-3H-purin-3-yl}ethyl)piperidin-1-yl]carbonyl}glycinate], for which the “% Inhibition” value is given as 36%.

For `CC(C)N1CCCCC1CCn1cnc(N)c2nc(Sc3cc4c(cc3Br)OCO4)nc1-2` (stereo not shown) [Example 446, 8-[(6-Bromo-1,3-benzodioxol-5-yl)thio]-3-[2-(1-isopropylpiperidin-2-yl)ethyl]-3H-purin-6-amine], the “% Inhibition” value was found to be 4%.

Consider `CC(C)CN1CCCCC1CCn1cnc(N)c2nc(Sc3cc4c(cc3Br)OCO4)nc1-2` (stereo not shown) [Example 448, 8-[(6-Bromo-1,3-benzodioxol-5-yl)thio]-3-[2-(1-isobutylpiperidin-2-yl)ethyl]-3H-purin-6-amine], for which the “% Inhibition” value worked out at 45%.

On to `CC(C)(C)C(=O)N1CCCC(CCn2cnc(N)c3nc(Sc4cc5c(cc4Br)OCO5)nc2-3)C1` (stereo not shown) [Example 450, 8-[(6-Bromo-1,3-benzodioxol-5-yl)thio]-3-{2-[1-(2,2-dimethylpropanoyl)piperidin-3-yl]ethyl}-3H-purin-6-amine], for which the “% Inhibition” value amounted to 57%.

On to `CC(C)(C)C(=O)N1CCC(CCn2cnc(N)c3nc(Sc4cc5c(cc4Br)OCO5)nc2-3)CC1` [Example 452, 8-[(6-Bromo-1,3-benzodioxol-5-yl)thio]-3-{2-[1-(2,2-dimethylpropanoyl)piperidin-4-yl]ethyl}-3H-purin-6-amine], for which the “% Inhibition” value turned out to be 21%.

`CC(C)(C)OC(=O)N1CC(CCn2cnc(N)c3nc(Sc4cc5c(cc4Br)OCO5)nc2-3)C1` [Example 459, tert-Butyl 3-(2-{6-amino-8-[(6-bromo-1,3-benzodioxol-5-yl)thio]-3H-purin-3-yl}ethyl)azetidine-1-carboxylate]: the “% Inhibition” value was found to be 18%.

On to `CC(C)(C)OC(=O)N1C=C(CCn2cnc(N)c3nc(Sc4cc5c(cc4Br)OCO5)nc2-3)CCC1` [Example 463, tert-Butyl 5-(2-{6-amino-8-[(6-bromo-1,3-benzodioxol-5-yl)thio]-3H-purin-3-yl}ethyl)-3,4-dihydropyridine-1(2 H)-carboxylate], for which the “% Inhibition” value is reported as 14%.

For `COc1ccc(OC)c(Sc2nc3c(N)ncn(CCC4CCNCC4)c-3n2)c1` [Example 467, 8-[(2,5-Dimethoxyphenyl)thio]-3-(2-piperidin-4-ylethyl)-3 H-purin-6-amine], the “% Inhibition” value is given as 0%.

As for `Nc1ncn(CCC2CCNCC2)c2nc(Sc3cc4c(cc3Br)OCO4)nc1-2` [Example 468, 8-[(6-Bromo-1,3-benzodioxol-5-yl)thio]-3-(2-piperidin-4-ylethyl)-3 H-purin-6-amine], the “% Inhibition” value is 9%.

The test is the same for the next values; noted with them: BODIPY-GM 10 nM, Hsp90 30 nM.
As usually defined, the IC50 is the point on the concentration scale where inhibition reaches its midpoint. A high value points to weaker potency in that assay. With `COc1ccc(OC)c(Sc2nc3c(N)ncnc3n2CCN2CCN(C(=O)C(C)(C)C)CC2)c1` [Example 444, 8-[(2,5-Dimethoxyphenyl)thio]-9-{2-[4-(2,2-dimethylpropanoyl)piperazin-1-yl]ethyl}-9H-purin-6-amine], the IC50 came to 1100 nM.

Consider `CC(C)N1CCCCC1CCn1c(Sc2cc3c(cc2Br)OCO3)nc2c(N)ncnc21` (stereo not shown) [Example 445, 8-[(6-Bromo-1,3-benzodioxol-5-yl)thio]-9-[2-(1-isopropylpiperidin-2-yl)ethyl]-9H-purin-6-amine], for which the half-maximal inhibitory concentration (IC50) worked out at 305 nM.

In turn, `CC(C)CN1CCCCC1CCn1c(Sc2cc3c(cc2Br)OCO3)nc2c(N)ncnc21` (stereo not shown) [Example 447, 8-[(6-Bromo-1,3-benzodioxol-5-yl)thio]-9-[2-(1-isobutylpiperidin-2-yl)ethyl]-9H-purin-6-amine] came in with a 50% inhibitory concentration (IC50) of 210 nM.

The molecule `CC(C)(C)C(=O)N1CCCC(CCn2c(Sc3cc4c(cc3Br)OCO4)nc3c(N)ncnc32)C1` (stereo not shown) [Example 449, 8-[(6-Bromo-1,3-benzodioxol-5-yl)thio]-9-{2-[1-(2,2-dimethylpropanoyl)piperidin-3-yl]ethyl}-9H-purin-6-amine] yielded a half-maximal inhibitory concentration (IC50) of 200 nM.

`CC(C)(C)C(=O)N1CCC(CCn2c(Sc3cc4c(cc3Br)OCO4)nc3c(N)ncnc32)CC1` [Example 451, 8-[(6-Bromo-1,3-benzodioxol-5-yl)thio]-9-{2-[1-(2,2-dimethylpropanoyl)piperidin-4-yl]ethyl}-9H-purin-6-amine]: the 50% inhibitory concentration (IC50) stood at 195 nM.

With `CC(C)CN1CCC(CCn2c(Sc3cc4c(cc3Br)OCO4)nc3c(N)ncnc32)CC1` [Example 453, 8-[(6-Bromo-1,3-benzodioxol-5-yl)thio]-9-[2-(1-isobutylpiperidin-4-yl)ethyl]-9H-purin-6-amine], the IC50 turned out to be 700 nM.

The molecule `CC(C)(C)CC(=O)N1CCCC(CCn2c(Sc3cc4c(cc3Br)OCO4)nc3c(N)ncnc32)C1` (stereo not shown) [Example 454, 8-[(6-Bromo-1,3-benzodioxol-5-yl)thio]-9-{2-[1-(3,3-dimethylbutanoyl)piperidin-3-yl]ethyl}-9H-purin-6-amine] gave an IC50 of 305 nM.

For `CC(C)(C)OC(=O)N[C@H]1CC[C@H](CCn2c(Sc3cc4c(cc3Br)OCO4)nc3c(N)ncnc32)CC1` [Example 455, tert-Butyl [trans-4-(2-{6-amino-8-[(6-bromo-1,3-benzodioxol-5-yl)thio]-9H-purin-9-yl}ethyl)cyclohexyl]carbamate], the IC50 turned out to be 60 nM.

Molecule `CC(C)(C)OC(=O)N1CC(CCn2c(Sc3cc4c(cc3Br)OCO4)nc3c(N)ncnc32)C1` [Example 458, tert-Butyl 3-(2-{6-amino-8-[(6-bromo-1,3-benzodioxol-5-yl)thio]-9H-purin-9-yl}ethyl)azetidine-1-carboxylate] came in with a half-inhibitory concentration (IC50) of 380 nM.

`CC(C)(C)OC(=O)N1C=C(CCn2c(Sc3cc4c(cc3Br)OCO4)nc3c(N)ncnc32)CCC1` [Example 462, tert-Butyl 5-(2-{6-amino-8-[(6-bromo-1,3-benzodioxol-5-yl)thio]-9H-purin-9-yl}ethyl)-3,4-dihydropyridine-1(2 H)-carboxylate] gave an IC50 of 7900 nM.

In turn, `CC(C)(C)OC(=O)N1CCC(CCn2c(Sc3cc4c(cc3Br)OCO4)nc3c(N)ncnc32)C(C)(C)C1` (stereo not shown) [Example 464, tert-Butyl 4-(2-{6-amino-8-[(6-bromo-1,3-benzodioxol-5-yl)thio]-9H-purin-9-yl}ethyl)-3,3-dimethylpiperidine-1-carboxylate] gave a 50% inhibitory concentration (IC50) of 400 nM.

Take `Nc1ncnc2c1nc(Sc1cc3c(cc1Br)OCO3)n2CCC1CCNCC1` [Example 465, 8-[(6-bromo-1,3-benzodioxol-5-yl)thio]-9-(2-piperidin-4-ylethyl)-9H-purin-6-amine]: the IC50 is 470 nM.

Take `Nc1ncnc2c1nc(Sc1cc3c(cc1Br)OCO3)n2CCC1CCCNC1` (stereo not shown) [Example 466, 8-[(6-Bromo-1,3-benzodioxol-5-yl)thio]-9-(2-piperidin-3-ylethyl)-9H-purin-6-amine]: the concentration for half-maximal inhibition (IC50) was found to be 60 nM.

In turn, `COc1ccc(OC)c(Sc2nc3c(N)ncnc3n2CCC2CCNCC2)c1` [Example 469, 8-[(2,5-Dimethoxyphenyl)thio]-9-(2-piperidin-4-ylethyl)-9 H-purin-6-amine] yielded an IC50 of 8800 nM.

Regarding `COc1ccc(OC)c(Sc2nc3c(N)ncnc3n2CCC2CCCNC2)c1` (stereo not shown) [Example 470, 8-[(2,5-Dimethoxyphenyl)thio]-9-(2-piperidin-3-ylethyl)-9 H-purin-6-amine], the IC50 is 280 nM.

Turning to `Nc1ncnc2c1nc(Sc1cc3c(cc1Br)OCO3)n2CC=C1CCNCC1` [Example 471, 8-[(6-Bromo-1,3-benzodioxol-5-yl)thio]-9-(2-piperidin-4-ylideneethyl)-9 H-purin-6-amine], the IC50 stood at 600 nM.

The molecule `CC1(C)CNCCC1CCn1c(Sc2cc3c(cc2Br)OCO3)nc2c(N)ncnc21` (stereo not shown) [Example 472, 8-[(6-Bromo-1,3-benzodioxol-5-yl)thio]-9-[2-(3,3-dimethylpiperidin-4-yl)ethyl]-9 H-purin-6-amine] had an IC50 of 70 nM.

Regarding `Nc1ncnc2c1nc(Sc1cc3c(cc1Br)OCO3)n2CC[C@H]1CCCNC1` [Example 473, 8-[(6-Bromo-1,3-benzodioxol-5-yl)thio]-9-{2-[(3R)-piperidin-3-yl]ethyl}-9 H-purin-6-amine], the IC50 worked out at 35 nM.

`Nc1ncnc2c1nc(Sc1cc3c(cc1Br)OCO3)n2CC[C@@H]1CCCNC1` [Example 474, 8-[(6-Bromo-1,3-benzodioxol-5-yl)thio]-9-{2-[(3S)-piperidin-3-yl]ethyl}-9 H-purin-6-amine] registered a 50% inhibitory concentration (IC50) of 140 nM.

Molecule `Nc1ncnc2c1nc(Sc1cc3c(cc1Br)OCO3)n2CC[C@H]1CCCCN1` [Example 475, 8-[(6-Bromo-1,3-benzodioxol-5-yl)thio]-9-{2-[(2R)-piperidin-2-yl]ethyl}-9 H-purin-6-amine] had a half-maximal inhibitory concentration (IC50) of 172 nM.

As for `Nc1ncnc2c1nc(Sc1cc3c(cc1Br)OCO3)n2CCC1CCNC1` (stereo not shown) [Example 476, 8-[(6-Bromo-1,3-benzodioxol-5-yl)thio]-9-(2-pyrrolidin-3-ylethyl)-9 H-purin-6-amine], the IC50 was 90 nM.

On to `Nc1ncnc2c1nc(Sc1cc3c(cc1Br)OCO3)n2CC[C@@H]1CCCCN1` [Example 477, 8-[(6-Bromo-1,3-benzodioxol-5-yl)thio]-9-{2-[(2S)-piperidin-2-yl]ethyl}-9 H-purin-6-amine], for which the half-inhibitory concentration (IC50) is 467 nM.

Molecule `Nc1ncnc2c1nc(Sc1cc3c(cc1Br)OCO3)n2CC[C@H]1CC[C@@H](N)CC1` [Example 481, 9-[2-(cis-4-Aminocyclohexyl)ethyl] 8-[(6-bromo-1,3-benzodioxol-5-yl)thio]-9 H-purin-6-amine] returned a half-maximal inhibitory concentration (IC50) of 50 nM.

`Nc1ncnc2c1nc(Sc1cc3c(cc1Br)OCO3)n2CCC1CNC1` [Example 483, 9-(2-Azetidin-3-ylethyl)-8-[(6-bromo-1,3-benzodioxol-5-yl)thio]-9 H-purin-6-amine] came in with a 50% inhibitory concentration (IC50) of 184 nM.

The record behind these values is US7595401B2, “Therapeutic compounds and their use in cancer” (Myriad Pharmaceuticals, Inc., priority 2006, dated 2009).
